The values that follow come from article PMC4149570 (PLoS ONE, 2014).

As a reminder, the Ki is the dissociation constant of the complex between target and ligand, obtained from inhibition or displacement.

“And” between values parts separate entries of the source, which are not always exact repeats. Equal values may be shown once. “Also recorded” adds a separate entry of the source. Read-outs that look alike come from different tables or passages of the source.

In data set [1] the target is T1, Y. pestis MEP synthase (Yersinia pestis, UniProt Q8ZH62). Nature of the data set: biochemical. To be noted: for inhibition at 100 µM: read-out: inhibition of enzymatic activity (rational library screen).
Data set [2] deals with T1, Y. pestis MEP synthase. The settings on record: for IC50: read-out: IC50 (dose-response, Figure 9).
Data set [3] concerns Y. pestis subsp. A1122. The experiment in a line: microbe, parasite or virus in culture. The class given is cell-based, Yersinia pestis. The settings on record: for IC50: read-out: IC50 of Y. pestis growth (fractional growth, OD600).
In data set [4] the test system is MEP synthase. To be noted: cited from earlier work.
The target in data set [5] is Synechocytis sp PCC6803 MEP synthase. The settings on record: cited from earlier work.
The subject of data set [6] is F. tularensis. To be noted: read-out: activity of fosmidomycin with F. tularensis (half maximal growth inhibition); cited from earlier work.
Data set [7] relates to F. tularensis MEP synthase. The settings on record: cited from earlier work.
Data set [8] has as its system E.coli MEP synthase. The settings on record: cited from earlier work.
Setting [9] is: IC50 (enzyme preincubated with inhibitor, Figure 10).
The mark [10] stands for this setting: Yersinia pestis, SUBSP.A1122, 24 h.

T1 sequence (Q8ZH62 whole entry, looked up): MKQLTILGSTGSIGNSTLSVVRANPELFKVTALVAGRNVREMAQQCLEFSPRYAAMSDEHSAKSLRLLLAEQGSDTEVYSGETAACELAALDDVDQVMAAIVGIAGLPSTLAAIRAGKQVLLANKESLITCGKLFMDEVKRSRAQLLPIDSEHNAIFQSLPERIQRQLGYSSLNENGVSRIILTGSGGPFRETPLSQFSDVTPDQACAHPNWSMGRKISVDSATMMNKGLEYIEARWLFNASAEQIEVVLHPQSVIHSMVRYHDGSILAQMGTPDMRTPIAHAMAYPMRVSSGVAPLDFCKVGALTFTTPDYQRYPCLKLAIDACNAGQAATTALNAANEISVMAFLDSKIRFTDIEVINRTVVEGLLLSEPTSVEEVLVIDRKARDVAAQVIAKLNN

As to `O=C(c1ccc2ccccc2c1)N(O)CCCP(=O)(O)O` [compound 48], the inhibition at 100 µM in data set [1] is over 75%. Moreover, in data set [2], the IC50 was 9.53 µM.
In the case of `CCOP(=O)(CCCN(OCc1ccc(C(C)C)cc1)C(C)=O)OCC` [compound 51], in data set [3], the “growth inhibitory activity towards Y. pestis liquid culture” value was “comparable to FR900098; also recorded: relatively poor inhibitory activity”.
On the same count and under the same terms, then `CC(=O)N(CCCP(=O)(OCOC(=O)C(C)(C)C)OCOC(=O)C(C)(C)C)OCc1ccc(C(C)C)cc1` [compound 52], with “comparable to FR900098; also recorded: relatively poor inhibitory activity”.
As for `O=CN(O)CCCP(=O)(O)O` [fosmidomycin], in data set [4], the “mode of inhibition with respect to the binding of NADPH” value is “uncompetitive”. Moreover, the inhibitory constant (Ki) was 0.004 µM in data set [5] (read-out: Ki fos), 0.968 µM in data set [1], 0.0989 ± 0.0045 µM in data set [7] (read-out: Ki fos) and 0.021 to 0.215 µM in data set [8] (read-out: Ki fos). Also, the IC50 in data set [6] was 12.1 µM; in data set [1] (IC50 fos), 0.71 µM; in data set [7] (read-out: IC50 fos), 0.247 µM; in data set [8] (read-out: IC50 fos) it was 0.035 µM.
As for `CC(=O)N(CCCP(=O)(O)O)OCc1ccc(-c2ccccc2)cc1` [compound 13], the inhibition at 100 µM in data set [1] was over 75%. Further, the IC50 in data set [2] amounted to 5.11 µM.
The compound `C/C(=C\COP(=O)(O)OP(=O)(O)O)CO` [compound 16] registered an IC50 in data set [1] (IC50 (dose-response, Figure 9)) of 4.15 µM. Also, in data set [1] (setting [9]), the IC50 is 0.335 µM. For the same compound, the inhibition at 100 µM in data set [1] was over 75%. In data set [3], the “growth inhibitory activity towards Y. pestis liquid culture” value was “comparable to FR900098; also recorded: relatively poor inhibitory activity”. Moreover, in data set [2], the “improvement of IC50 on preincubation with inhibitor” value is about 12 fold, the “mode of inhibition with respect to DXP” value was “competitive” and the “mode of inhibition with respect to NADPH” value is on record as “competitive”.
On to `C[C@@]1(CO)OP(=O)(O)OP(=O)(O)OC[C@H]1O` [compound 15], for which the IC50 is 4.11 µM in data set [1] (IC50 (dose-response, Figure 9)) and 1.19 µM in data set [1] (setting [9]). Besides, the inhibition at 100 µM in data set [1] was over 75%. Besides, the “growth inhibitory activity towards Y. pestis liquid culture” value in data set [3] is “comparable to FR900098; also recorded: relatively poor inhibitory activity”. In data set [2], the “improvement of IC50 on preincubation with inhibitor” value is reported as “approximately 3 fold”.
In the case of `CC(C)=CCOP(=O)(O)OP(=O)(O)O` [DMAPP, dimethylallyl pyrophosphate], the “inhibition of Y. pestis MEP synthase (feedback inhibition test)” value (“inhibition of Y. pestis MEP synthase” below) in data set [2] is listed as “No enzyme inhibition was observed”.
Turning to `CC(C)=CCC/C(C)=C/COP(=O)(O)OP(=O)(O)O` [GPP, geranyl pyrophosphate], the “inhibition of Y. pestis MEP synthase” value in data set [2] is on record as “No enzyme inhibition was observed”.
As to `CC(=O)N(O)CCCP(=O)(O)O` [FR900098, reference compound], in data set [4], the “mode of inhibition relative to DXP” value is “competitive”. Moreover, the “mode of inhibition with respect to the binding of NADPH” value in data set [4] is reported as “uncompetitive”. For the same compound, the inhibition constant Ki in data set [5] (read-out: Ki FR900098) is 0.002 µM; in data set [1], 0.17 ± 0.0071 µM. For the same compound, the IC50 in data set [1] (IC50 FR900098) was 0.231 µM; in data set [7] (read-out: IC50 FR900098) it was 0.23 µM; in data set [3] (setting [10]), 29 µM and 6.4 µg/mL; in data set [3], 29.3 µM; in data set [8] (read-out: IC50 FR900098), 0.035 µM. The “mode of inhibition with respect to DXP” value in data set [2] is listed as “competitive”. The “mode of inhibition with respect to NADPH” value in data set [2] was “uncompetitive”.
Regarding `Cc1ccc(C(=O)N(O)CCCP(=O)(O)O)cc1` [compound 42], the inhibition at 100 µM in data set [1] was over 75%. Further, the IC50 in data set [2] amounted to 10.8 µM.
With `C=C(C)CCO[P@@](=O)(O)OP(=O)(O)O` [IPP, isopentenyl pyrophosphate], the “inhibition of Y. pestis MEP synthase” value in data set [2] was “No enzyme inhibition was observed”.
On to `CC1(C)S[C@@H]2[C@H](NC(=O)[C@H](N)c3ccccc3)C(=O)N2[C@H]1C(=O)O` [ampicillin, reference compound], for which the IC50 in data set [3] (setting [10]) is 10.8 µM and 3.8 µg/mL.
